# Test results: patent US7563899B2, “(S)-N-methylnaltrexone” (Progenics Pharmaceuticals, Inc., priority 2005, dated 2009)
# Counter-ions that a name gives are not always drawn.
# Experiments:
# [1] = biological target: T1, μ-opioid receptors in the guinea pig ileum (Cavia porcellus, UniProt A0ACM8Q262); assay: Guinea pig ileum bioassay, test for agonist activity (inhibition of electrically evoked twitch contractions); settings: for Response to the compound (decrease in twitch contraction amplitude): percent of control response to DAMGO 1.0E−07 M
# Experimental: (§1) Experimental Conditions. Segments of guinea pig terminal ileum were suspended in 20-ml organ baths filled with an oxygenated (95% O2 and 5% CO2) and pre-warmed (37° C.) physiological salt solution of the following composition (in mM): NaCl 118.0, KCl 4.7, MgSO4 1.2, CaCl2 2.5, KH2PO4 1.2, NaHCO3 25.0 and glucose 11.0 (pH 7.4). Additional experimental conditions were as described in Hutchinson et al. (1975) Brit. J. Pharmacol., 55: 541-546.
# (§2) Indomethacin (1 μM), nor-binaltorphimine (0.01 μM), methysergide (1 μM), ondansetron (10 μM) and GR113808 (0.1 μM) were also present throughout the experiments to prevent prostanoid release and to block the k-opioid, 5-HT2, 5-HT3 and 5-HT4 receptors, respectively. The tissues were connected to force transducers for isometric tension recordings. They were stretched to a resting tension of 1 g then allowed to equilibrate for 60 min during which time they were washed repeatedly and the tension readjusted. Thereafter, they were stimulated electrically with pulses of minimal intensity to trigger maximal contractions and 1 ms duration, delivered at 0.1 Hz by a constant current stimulator.
# Test for agonist activity. […] The different concentrations were added cumulatively and each was left in contact with the tissues until a stable response was obtained or for a maximum of 15 min.
# (§3) Analysis and Expression of Results. The parameter measured was the maximum change in the amplitude of the electrically-evoked twitch contractions induced by each compound concentration.
# [2] = biological target: T2, human μ (mu, MOP) receptor (Homo sapiens, UniProt P35372); assay: cAMP assay in CHO cells expressing human mu receptor, antagonist assay; format: cell-based; settings: for cAMP antagonist assay value (Table IX.2): then 30 μM DAMGO, then forskolin
# T2 construct: expressed in transfected cells; host or cells: CHO cells
# Experimental: Thus full antagonist effect was equivalent to forskolin without any addition of μ-opioid agonist.
# Cells were grown to confluence in 96-well plates. Cells were washed and equilibrated in physiological buffer before analysis. 20 ul of drug, 100 uM IBMX and 10 uM forskolin were added and incubated for 25 minutes at room temperature and then the reaction was stopped with the addition of 0.1 N HCl. Extracted cAMP level was determined via competitive EIA assay utilizing alkaline phosphatase. Additional experimental conditions were as described in Toll L., J Pharmacol Exp Ther. (1995) 273(2): 721-7.
# [3] = biological target: T2, human μ (mu, MOP) receptor; assay: cAMP assay in CHO cells expressing human mu receptor, agonist assay; format: cell-based
# [4] = biological target: T1, μ-opioid receptors in the guinea pig ileum; assay: Guinea pig ileum bioassay, test for antagonist activity (against DAMGO-induced response); settings: for Response to DAMGO (1.0E−07 M) in the presence of the compound: percent of control response to DAMGO, mean, n=2
# Experimental: as §1, §2
# Test for antagonist activity. […] Each concentration was left in contact with the tissues until a stable response was obtained or for a maximum of 15 min.
# as §3
# [5] = biological target: human recombinant mu opioid receptors (Homo sapiens, UniProt P35372); assay: Radioligand binding assay, mu opioid receptor
# Experimental: Radioligand binding assays were conducted to determine the binding specificity of S-N-methynaltrexone for μ-, κ-, and δ-opiate receptors using methods adapted from scientific literature (Simonin, F et al 1994, Mol. Pharmacol 46:1015-1021; Maguire, P. et al 1992, Eur. J. Pharmacol. 213:219-225; Simonin, F. et al PNAS USA 92(15):1431-1437; Wang, J B 1994, FEBS Lett 338:217-222).
# [6] = system: gastrointestinal transit in rats; assay: Gastrointestinal transit (charcoal motility) in rats, alone or before morphine; format: in vivo, rat; settings: for Mean Motility: ratio of length of charcoal transit/total intestine length, * p<0.05 vs vehicle
# Experimental: F. et al J. Pharmacol. Exptl. Therap. 133: 400-408, 1961; D. E. Gmerek, et al J. Pharmacol. Exptl. Ther. 236: 8-13, 1986; and O. Yamamoto et al Neurogastroenterol. Motil. 10: 523-532, 1998.
# A control group of rats received 2 mL/kg of a 0.9% saline solution (n=10). After 15 minutes, rats were subcutaneously injected with saline (1 mL/kg) or morphine (3 mg/kg). A 10% suspension of activated charcoal in 0.25% methylcellulose was administered orally at 10 mL/kg to the rats 20 minutes (±2 minutes) after the subcutaneous dose of morphine or saline. The rats were euthanized 25 minutes (±3 minutes) after receiving the charcoal and the intestines were removed and lightly stretched on moist paper along a meterstick. The small intestine from pyloric sphincter to caecum was measured and the distance traveled by the charcoal as a fraction of that length was evaluated for each rat.
# Statistically significant effects were determined by ANOVA with Tukey HSD Multiple Comparison Test. Differences with p values <0.05 were considered statistically significant.
# Values for charcoal motility were expressed as a percent effect and were calculated in the following manner: The individual distance traveled by the charcoal in centimeters was divided by the total length of the intestines in centimeters (pyloric sphincter to caecum) for each rat. Mean values were calculated for each group, and the percent effect was calculated using the following formula: […]
# [7] = 1 mg/kg sc + Morphine 3 mg/kg sc
# [8] = 3 mg/kg sc + Morphine 3 mg/kg sc
# [9] = 10 mg/kg sc + Morphine 3 mg/kg sc
# T1 sequence (A0ACM8Q262 1-400): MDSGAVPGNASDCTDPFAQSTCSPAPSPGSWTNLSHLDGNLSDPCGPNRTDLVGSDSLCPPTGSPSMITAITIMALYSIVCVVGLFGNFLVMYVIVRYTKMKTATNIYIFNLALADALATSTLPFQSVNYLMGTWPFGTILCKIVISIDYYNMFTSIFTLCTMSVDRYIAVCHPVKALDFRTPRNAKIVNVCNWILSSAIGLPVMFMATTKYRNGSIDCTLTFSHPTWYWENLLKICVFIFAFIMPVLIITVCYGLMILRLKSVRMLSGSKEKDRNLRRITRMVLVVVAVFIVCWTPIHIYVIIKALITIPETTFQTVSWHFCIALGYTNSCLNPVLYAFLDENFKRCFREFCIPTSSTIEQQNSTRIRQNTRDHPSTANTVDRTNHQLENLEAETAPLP
# T2 sequence (P35372 whole entry): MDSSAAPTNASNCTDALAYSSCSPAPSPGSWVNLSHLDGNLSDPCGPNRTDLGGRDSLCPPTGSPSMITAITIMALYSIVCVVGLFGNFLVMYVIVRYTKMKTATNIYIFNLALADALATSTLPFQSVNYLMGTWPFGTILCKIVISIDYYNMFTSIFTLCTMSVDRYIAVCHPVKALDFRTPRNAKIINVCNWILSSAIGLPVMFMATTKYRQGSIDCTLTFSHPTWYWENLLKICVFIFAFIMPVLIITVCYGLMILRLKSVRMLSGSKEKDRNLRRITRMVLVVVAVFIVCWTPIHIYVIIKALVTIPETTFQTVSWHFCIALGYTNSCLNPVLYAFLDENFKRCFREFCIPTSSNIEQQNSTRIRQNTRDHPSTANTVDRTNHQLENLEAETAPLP
# human recombinant mu opioid receptors, sequence (P35372 whole entry): as above
structure (smiles),measurement,setting,value
"C[N@@+]1(CC2CC2)CC[C@]23c4c5ccc(O)c4OC2C(=O)CCC3(O)C1C5 (stereo partly drawn) [S-MNTX, (S)-N-(cyclopropylmethyl)-noroxymorphone methyl salt]",Response to the compound (decrease in twitch contraction amplitude),"[1]; 1.0E−04 M, mean, n=2",109%
same,Response to the compound (decrease in twitch contraction amplitude),"[1]; 1.0E−05 M, mean, n=2",92%
same,Response to the compound (decrease in twitch contraction amplitude),"[1]; 1.0E−06 M, mean, n=2",35%
same,Response to the compound (decrease in twitch contraction amplitude),"[1]; 1.0E−07 M, mean, n=2",5%
same,Response to the compound (decrease in twitch contraction amplitude),"[1]; 1.0E−08 M, mean, n=2",0%
same,Response to the compound (decrease in twitch contraction amplitude),"[1]; 3.0E−05 M, mean, n=2",109%
same,Response to the compound (decrease in twitch contraction amplitude),"[1]; 3.0E−06 M, mean, n=2",59%
same,Response to the compound (decrease in twitch contraction amplitude),"[1]; 3.0E−07 M, mean, n=2",16%
same,Response to the compound (decrease in twitch contraction amplitude),"[1]; 3.0E−08 M, mean, n=2",0%
same,Response to the compound +naloxone,"[1]; compound 1.0E−04 M + naloxone 1.0E−07 M, percent of control response to DAMGO, mean, n=2",17%
same,behaviour at the μ-opioid receptors in this tissue,[1]; field-stimulated guinea pig ileum,behaves as an agonist
same,EC50,"[1]; guinea pig ileum, linear regression of concentration-response curve",2000 nM
same,antagonist effect in cAMP assay,[2]; cAMP antagonist assay,no antagonist effect
same,cAMP antagonist assay value (Table IX.2),[2]; log{M} conc −4.0,−13
same,cAMP antagonist assay value (Table IX.2),[2]; log{M} conc −4.5,−13
same,cAMP antagonist assay value (Table IX.2),[2]; log{M} conc −5.0,−9
same,cAMP antagonist assay value (Table IX.2),[2]; log{M} conc −5.5,−8
same,cAMP antagonist assay value (Table IX.2),[2]; log{M} conc −6.0,−1
same,cAMP antagonist assay value (Table IX.2),[2]; log{M} conc −6.5,9
same,cAMP antagonist assay value (Table IX.2),[2]; log{M} conc −7.0,5
same,cAMP antagonist assay value (Table IX.2),[2]; log{M} conc −7.5,6
same,cAMP antagonist assay value (Table IX.2),[2]; log{M} conc −8.0,4
same,cAMP antagonist assay value (Table IX.2),[2]; log{M} conc −9.0,0
same,EC50,"[3]; CHO cells, human recombinant mu receptor, 10 uM forskolin, 100 uM IBMX, read-out: EC50 (agonist response, inhibition of forskolin-induced cAMP)",600 nM
same,nature of the agonist response,[3]; cAMP agonist assay,complete (not partial)
same,cAMP agonist assay value (Table IX.1),[3]; log{M} conc −4.0,3
same,cAMP agonist assay value (Table IX.1),[3]; log{M} conc −4.5,−3
same,cAMP agonist assay value (Table IX.1),[3]; log{M} conc −5.0,4
same,cAMP agonist assay value (Table IX.1),[3]; log{M} conc −5.5,11
same,cAMP agonist assay value (Table IX.1),[3]; log{M} conc −6.0,32
same,cAMP agonist assay value (Table IX.1),[3]; log{M} conc −6.5,66
same,cAMP agonist assay value (Table IX.1),[3]; log{M} conc −7.0,70
same,cAMP agonist assay value (Table IX.1),[3]; log{M} conc −7.5,79
same,cAMP agonist assay value (Table IX.1),[3]; log{M} conc −8.0,104
same,cAMP agonist assay value (Table IX.1),[3]; log{M} conc −9.0,86
same,Response to DAMGO (1.0E−07 M) in the presence of the compound,[4]; compound 1.0E−04 M,110%
same,Response to DAMGO (1.0E−07 M) in the presence of the compound,[4]; compound 1.0E−05 M,105%
same,Response to DAMGO (1.0E−07 M) in the presence of the compound,[4]; compound 1.0E−06 M,100%
same,Response to DAMGO (1.0E−07 M) in the presence of the compound,[4]; compound 1.0E−07 M,100%
same,Response to DAMGO (1.0E−07 M) in the presence of the compound,[4]; compound 1.0E−08 M,100%
same,Response to DAMGO (1.0E−07 M) in the presence of the compound,[4]; compound 3.0E−05 M,109%
same,Response to DAMGO (1.0E−07 M) in the presence of the compound,[4]; compound 3.0E−06 M,102%
same,Response to DAMGO (1.0E−07 M) in the presence of the compound,[4]; compound 3.0E−07 M,100%
same,Response to DAMGO (1.0E−07 M) in the presence of the compound,[4]; compound 3.0E−08 M,100%
same,Antagonist activity IC50 value,"[4]; guinea pig ileum, against DAMGO 1.0E−07 M",No antagonist activity
same,Ki,[5],198 nM
same,Percent Decrease,[6]; [7],54%
same,Mean Motility,[6]; [7],0.281*
same,Percent Decrease,[6]; [8],57%
same,Mean Motility,[6]; [8],0.258*
same,Percent Decrease,[6]; [9],80%
same,Mean Motility,[6]; [9],0.122*
same,Percent Decrease,[6]; 10 mg/kg sc + Saline,21%
same,Mean Motility,[6]; 10 mg/kg sc + Saline,0.476*
same,effect on GI transit in combination with / prior to morphine,"[6]; rats, sc, 15 minutes before morphine 3 mg/kg",dramatic synergistic agonist effect in decreasing GI motility
same,effect on GI transit when administered alone,"[6]; rats, sc, alone",decreased GI motility
